# Test results as given in patent US20240041991A1, “STABLE LIQUID DISPERSINB COMPOSITIONS” (KANE BIOTECH INC., priority 2020, published 2024).
# Read-outs that look alike come from different tables or passages of the source. Marks after values point to notes of the source that are not given here.
# Columns and labels:
# DispersinB [1] = type: biochemical, Aggregatibacter actinomycetemcomitans; details: 50 mM citrate buffer pH 5.9; salt concentration as in label; control with no salts = 100%
# Description: Activity of the control sample with no salts was considered 100%.
# DispersinB [2] = details: pH 5.9; 50 mM Citrate; 100 mM NaCl pH 5.9 control = 100%
# Protocol: DispersinB enzyme solutions (100 μg/ml) were prepared in 50 mM citrate buffer, containing 200 mM K2SO4. The pH was adjusted (5.4 to 5.9). DispersinB enzymatic activity was measured using β-N-Acetylglucosaminidase assay kit from Sigma (product code CS0780) in 96-well microtiter plate following the manufacturer's instructions. The data was represented as % enzymatic activity in comparison to enzyme activity of control sample that contained 100 μg/ml DispersinB in 50 mM citrate buffer (pH 5.9) containing 100 mM NaCl Activity of the control sample was considered 100%.
# DispersinB [3] = assay: Effect of buffer and pH on DispersinB enzymatic activity (β-N-Acetylglucosaminidase assay kit); type: biochemical, Aggregatibacter actinomycetemcomitans; details: buffer strength 100 mM, 100 mM NaCl, citrate pH 5.9 = 100%
# Protocol: Lyophilized DispersinB powder was dissolved in selected buffers (citrate, phosphate) of defined pH (5.5 -7.5). The DispersinB concentration was adjusted to 100 μg/ml. Salt concentration was maintained at 100 mM sodium chloride. […] The enzymatic activity was presented as percentages in comparison to enzymatic activity of DispersinB in 100 mM Citrate buffer, 100 mM NaCl, pH 5.9, which was considered 100%.
# Enzymatic activity in citrate buffer with a pH of 5.9 was considered 100%. * indicates statistically significant (p<0.05) values in paired two tailed t-test, each treatment was compared with enzymatic activity of DispersinB in corresponding buffer of pH 5.9.
# DispersinB [4] = test system: DispersinB
# Protocol: DispersinB enzyme (100 μg/ml) solutions in 50 mM citrate buffer and phosphate buffer (pH 5.9), with 100 mM NaCl containing EDTA (0.5%-10%) were tested for DispersinB enzymatic activity following β-N-Acetylglucosaminidase assay.
# DispersinB [5] = type: biochemical, Aggregatibacter actinomycetemcomitans; details: for % enzymatic activity of DispersinB (Mean): polyol % as in label
# Protocol: Samples from each formula was incubated at 3 different temperatures (42° C., 52° C. and 62° C.) for 3 hours. Following a 3 hour incubation, the samples were brought to room temperature for enzymatic activity assay.
# Two-tailed paired T-test was performed by to compare each polyol containing treatment with the treatment devoid of polyol. Treatment with probability values (p) less than 5% (0.05) was considered significant.
compound,measurement,setting,value
"N.N.O=S(=O)(O)O [100 mM (NH4)2SO4, (NH4)2SO4]",% enzymatic activity of DispersinB (Mean),DispersinB [1],91%
"[Cl-].[K+] [100 mM KCl, KCl]",% enzymatic activity of DispersinB (Mean),DispersinB [1],152* %
"O=[N+]([O-])[O-].[K+] [100 mM KNO3, KNO3]",% enzymatic activity of DispersinB (Mean),DispersinB [1],135* %
"[Cl-].[Li+] [100 mM LiCl, LiCl]",% enzymatic activity of DispersinB (Mean),DispersinB [1],97%
"[Cl-].[Cl-].[Mg+2] [100 mM MgCl2, MgCl2]",% enzymatic activity of DispersinB (Mean),DispersinB [1],81* %
"O=S(=O)([O-])[O-].[Mg+2] [100 mM MgSO4, MgSO4]",% enzymatic activity of DispersinB (Mean),DispersinB [1],87%
"CC(=O)O.N [100 mM NH4 CH2COO, NH4 CH2COO]",% enzymatic activity of DispersinB (Mean),DispersinB [1],66* %
"Cl.N [100 mM NH4Cl, NH4Cl]",% enzymatic activity of DispersinB (Mean),DispersinB [1],129* %
"O=S(=O)([O-])[O-].[Na+].[Na+] [100 mM Na2SO4, Na2SO4]",% enzymatic activity of DispersinB (Mean),DispersinB [1],174* %
"[Cl-].[Na+] [100 mM NaCl, NaCl]",% enzymatic activity of DispersinB (Mean),DispersinB [1],179* %
same,% Activity,DispersinB [2],100.00^b %
O=C(O)CC(O)(CC(=O)O)C(=O)O [Citrate],% Enzyme activity,DispersinB [3]; pH 5.5,72* %
same,% Enzyme activity,DispersinB [3]; pH 5.9,100%
same,% Enzyme activity,DispersinB [3]; pH 6,76* %
same,% Enzyme activity,DispersinB [3]; pH 6.5,53* %
same,% Enzyme activity,DispersinB [3]; pH 7,35* %
same,% Enzyme activity,DispersinB [3]; pH 7.5,21* %
"O=C(O)CN(CCN(CC(=O)O)CC(=O)O)CC(=O)O [EDTA, Ethylenediaminetetraacetic acid]",% Activity,"DispersinB [4]; Citrate buffer pH 5.9, 100 mM NaCl, EDTA 0 mg/ml",100.00%
same,% Activity,"DispersinB [4]; Citrate buffer pH 5.9, 100 mM NaCl, EDTA 0.5 mg/ml",101.45%
same,% Activity,"DispersinB [4]; Citrate buffer pH 5.9, 100 mM NaCl, EDTA 1 mg/ml",95.86%
same,% Activity,"DispersinB [4]; Citrate buffer pH 5.9, 100 mM NaCl, EDTA 2.5 mg/ml",104.19%
same,% Activity,"DispersinB [4]; Citrate buffer pH 5.9, 100 mM NaCl, EDTA 9.4 mg/ml",83.18%
same,% Activity,"DispersinB [4]; Phosphate buffer pH 5.9, 100 mM NaCl, EDTA 0 mg/ml",100.00%
same,% Activity,"DispersinB [4]; Phosphate buffer pH 5.9, 100 mM NaCl, EDTA 0.5 mg/ml",102.52%
same,% Activity,"DispersinB [4]; Phosphate buffer pH 5.9, 100 mM NaCl, EDTA 1 mg/ml",99.78%
same,% Activity,"DispersinB [4]; Phosphate buffer pH 5.9, 100 mM NaCl, EDTA 2.5 mg/ml",91.13%
same,% Activity,"DispersinB [4]; Phosphate buffer pH 5.9, 100 mM NaCl, EDTA 9.4 mg/ml",66.51%
same,concentrations of EDTA that tend to reduce the enzyme activity,DispersinB [4]; citrate buffer,greater than 2.5 mg/ml
same,concentrations of EDTA that tend to reduce the enzyme activity,DispersinB [4]; phosphate buffer,greater than 1 mg/ml
"OC[C@@H](O)[C@H](O)[C@@H](O)CO [xylitol, Xylitol]",% enzymatic activity of DispersinB (Mean),"DispersinB [5]; 4° C., freshly made control without polyol = 100%, listed as 0.25% Xylitol",98%
same,% enzymatic activity of DispersinB (Mean),"DispersinB [5]; 4° C., freshly made control without polyol = 100%, listed as 0.5% Xylitol",106%
same,% enzymatic activity of DispersinB (Mean),"DispersinB [5]; 4° C., freshly made control without polyol = 100%, listed as 1% Xylitol",97%
same,% enzymatic activity of DispersinB (Mean),"DispersinB [5]; 4° C., freshly made control without polyol = 100%, listed as 2% Xylitol",117* %
same,% enzymatic activity of DispersinB (Mean),"DispersinB [5]; 4° C., freshly made control without polyol = 100%, listed as 4% Xylitol",120* %
same,% enzymatic activity of DispersinB (Mean),"DispersinB [5]; 4° C., freshly made control without polyol = 100%, listed as 6% Xylitol",115%
same,% enzymatic activity of DispersinB (Mean),"DispersinB [5]; 4° C., freshly made control without polyol = 100%, listed as 8% Xylitol",118%
same,% enzymatic activity of DispersinB (Mean),"DispersinB [5]; 4° C., freshly made control without polyol = 100%, listed as 10% Xylitol",107%
same,% enzymatic activity of DispersinB (Mean),"DispersinB [5]; 4° C., freshly made control without polyol = 100%, listed as 20% Xylitol",91* %
same,% enzymatic activity of DispersinB (Mean),"DispersinB [5]; 4° C., freshly made control without polyol = 100%, listed as 30% Xylitol",85* %
same,% enzymatic activity of DispersinB (Mean),"DispersinB [5]; 4° C., freshly made control without polyol = 100%, listed as 40% Xylitol",86* %
same,% enzymatic activity of DispersinB (Mean),"DispersinB [5]; 42° C. for 3 hours, control without polyol = 100%, listed as 0.25% Xylitol",90%
same,% enzymatic activity of DispersinB (Mean),"DispersinB [5]; 42° C. for 3 hours, control without polyol = 100%, listed as 0.5% Xylitol",85%
same,% enzymatic activity of DispersinB (Mean),"DispersinB [5]; 42° C. for 3 hours, control without polyol = 100%, listed as 1% Xylitol",88%
same,% enzymatic activity of DispersinB (Mean),"DispersinB [5]; 42° C. for 3 hours, control without polyol = 100%, listed as 2% Xylitol",101* %
same,% enzymatic activity of DispersinB (Mean),"DispersinB [5]; 42° C. for 3 hours, control without polyol = 100%, listed as 4% Xylitol",91%
same,% enzymatic activity of DispersinB (Mean),"DispersinB [5]; 42° C. for 3 hours, control without polyol = 100%, listed as 6% Xylitol",97%
same,% enzymatic activity of DispersinB (Mean),"DispersinB [5]; 42° C. for 3 hours, control without polyol = 100%, listed as 8% Xylitol",93%
same,% enzymatic activity of DispersinB (Mean),"DispersinB [5]; 42° C. for 3 hours, control without polyol = 100%, listed as 10% Xylitol",86%
same,% enzymatic activity of DispersinB (Mean),"DispersinB [5]; 42° C. for 3 hours, control without polyol = 100%, listed as 20% Xylitol",80%
same,% enzymatic activity of DispersinB (Mean),"DispersinB [5]; 42° C. for 3 hours, control without polyol = 100%, listed as 30% Xylitol",71* %
same,% enzymatic activity of DispersinB (Mean),"DispersinB [5]; 42° C. for 3 hours, control without polyol = 100%, listed as 40% Xylitol",72* %
same,% enzymatic activity of DispersinB (Mean),"DispersinB [5]; 52° C. for 3 hours, control without polyol = 100%, listed as 0.25% Xylitol",6%
same,% enzymatic activity of DispersinB (Mean),"DispersinB [5]; 52° C. for 3 hours, control without polyol = 100%, listed as 0.5% Xylitol",7%
same,% enzymatic activity of DispersinB (Mean),"DispersinB [5]; 52° C. for 3 hours, control without polyol = 100%, listed as 1% Xylitol",9* %
same,% enzymatic activity of DispersinB (Mean),"DispersinB [5]; 52° C. for 3 hours, control without polyol = 100%, listed as 2% Xylitol",17* %
same,% enzymatic activity of DispersinB (Mean),"DispersinB [5]; 52° C. for 3 hours, control without polyol = 100%, listed as 4% Xylitol",26* %
same,% enzymatic activity of DispersinB (Mean),"DispersinB [5]; 52° C. for 3 hours, control without polyol = 100%, listed as 6% Xylitol",43* %
same,% enzymatic activity of DispersinB (Mean),"DispersinB [5]; 52° C. for 3 hours, control without polyol = 100%, listed as 8% Xylitol",53* %
same,% enzymatic activity of DispersinB (Mean),"DispersinB [5]; 52° C. for 3 hours, control without polyol = 100%, listed as 10% Xylitol",61* %
same,% enzymatic activity of DispersinB (Mean),"DispersinB [5]; 52° C. for 3 hours, control without polyol = 100%, listed as 20% Xylitol",69* %
same,% enzymatic activity of DispersinB (Mean),"DispersinB [5]; 52° C. for 3 hours, control without polyol = 100%, listed as 30% Xylitol",70* %
same,% enzymatic activity of DispersinB (Mean),"DispersinB [5]; 52° C. for 3 hours, control without polyol = 100%, listed as 40% Xylitol",68* %
same,% enzymatic activity of DispersinB (Mean),"DispersinB [5]; 62° C. for 3 hours, control without polyol = 100%, listed as 8% Xylitol",1* %
same,% enzymatic activity of DispersinB (Mean),"DispersinB [5]; 62° C. for 3 hours, control without polyol = 100%, listed as 10% Xylitol",2* %
same,% enzymatic activity of DispersinB (Mean),"DispersinB [5]; 62° C. for 3 hours, control without polyol = 100%, listed as 20% Xylitol",2* %
same,% enzymatic activity of DispersinB (Mean),"DispersinB [5]; 62° C. for 3 hours, control without polyol = 100%, listed as 30% Xylitol",3* %
same,% enzymatic activity of DispersinB (Mean),"DispersinB [5]; 62° C. for 3 hours, control without polyol = 100%, listed as 40% Xylitol",42* %
Phosphate,% Enzyme activity,DispersinB [3]; pH 5.5,80* %
same,% Enzyme activity,DispersinB [3]; pH 5.9,100%
same,% Enzyme activity,DispersinB [3]; pH 6,81* %
same,% Enzyme activity,DispersinB [3]; pH 6.5,50* %
same,% Enzyme activity,DispersinB [3]; pH 7,24* %
same,% Enzyme activity,DispersinB [3]; pH 7.5,12* %
Propylene glycol,% enzymatic activity of DispersinB (Mean),"DispersinB [5]; 4° C., freshly made control without polyol = 100%, listed as Prop. Glycol 2.5%",119* %
same,% enzymatic activity of DispersinB (Mean),"DispersinB [5]; 4° C., freshly made control without polyol = 100%, listed as Prop. Glycol 5%",114* %
same,% enzymatic activity of DispersinB (Mean),"DispersinB [5]; 4° C., freshly made control without polyol = 100%, listed as Prop. Glycol 10%",117* %
same,% enzymatic activity of DispersinB (Mean),"DispersinB [5]; 4° C., freshly made control without polyol = 100%, listed as Prop. Glycol 20%",124* %
same,% enzymatic activity of DispersinB (Mean),"DispersinB [5]; 4° C., freshly made control without polyol = 100%, listed as Prop. Glycol 30%",106%
same,% enzymatic activity of DispersinB (Mean),"DispersinB [5]; 42° C. for 3 hours, control without polyol = 100%, listed as Prop. Glycol 2.5%",109* %
same,% enzymatic activity of DispersinB (Mean),"DispersinB [5]; 42° C. for 3 hours, control without polyol = 100%, listed as Prop. Glycol 5%",93* %
same,% enzymatic activity of DispersinB (Mean),"DispersinB [5]; 42° C. for 3 hours, control without polyol = 100%, listed as Prop. Glycol 10%",95* %
same,% enzymatic activity of DispersinB (Mean),"DispersinB [5]; 42° C. for 3 hours, control without polyol = 100%, listed as Prop. Glycol 20%",46* %
same,temperature stabilizing effect on DispersinB at elevated temperatures,"DispersinB [5]; 42° C., 52° C., and 62° C.",did not exhibit temperature stabilizing effects
